“And” between values parts separate entries of the source, which are not always exact repeats. Identical values can stand only once. Inconclusive results and toxic doses are left out.
Tested on: P388 leukemia ip, CD2F1 mice, survival T/C
Test: NCI In Vivo Anticancer Drug Screen. Data for tumor model P388 Leukemia (intraperitoneal) in CD2F1 (CDF1) mice
Conditions: endpoint: median survival time, higher = longer survival
How it was run: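 Mice carrying the transplanted tumor received test compound or vehicle. Survival was recorded in each group, and the value is the treated-group measurement divided by that of the vehicle-treated control group.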

[1] = dose: 60.0 mg/kg/injection, schedule: Q01DX005 (ip), vehicle: saline with Tween-80
[2] = dose: 120.0 mg/kg/injection, schedule: Q01DX005 (ip), vehicle: saline with Tween-80
[3] = dose: 240.0 mg/kg/injection, schedule: Q01DX005 (ip), vehicle: saline with Tween-80
[4] = dose: 12.5 mg/kg/injection, schedule: Q01DX009 (ip), vehicle: Klucel (hydroxypropylcellulose) (HPC)
[5] = dose: 25.0 mg/kg/injection, schedule: Q01DX009 (ip), vehicle: Klucel (hydroxypropylcellulose) (HPC)
[6] = dose: 50.0 mg/kg/injection, schedule: Q01DX009 (ip), vehicle: Klucel (hydroxypropylcellulose) (HPC)
[7] = dose: 50.0 mg/kg/injection, schedule: Q01DX005 (ip), vehicle: saline with Tween-80
[8] = dose: 100.0 mg/kg/injection, schedule: Q01DX005 (ip), vehicle: saline with Tween-80
[9] = dose: 200.0 mg/kg/injection, schedule: Q01DX005 (ip), vehicle: saline with Tween-80
[10] = dose: 50.0 mg/kg/injection, schedule: Q01DX005 (ip), vehicle: Klucel (hydroxypropylcellulose) (HPC)
[11] = dose: 100.0 mg/kg/injection, schedule: Q01DX005 (ip), vehicle: Klucel (hydroxypropylcellulose) (HPC)
[12] = dose: 200.0 mg/kg/injection, schedule: Q01DX005 (ip), vehicle: Klucel (hydroxypropylcellulose) (HPC)
[13] = dose: 100.0 mg/kg/injection, schedule: Q04DX003 (ip), vehicle: Klucel (hydroxypropylcellulose) (HPC)
[14] = dose: 200.0 mg/kg/injection, schedule: Q04DX003 (ip), vehicle: Klucel (hydroxypropylcellulose) (HPC)
[15] = dose: 400.0 mg/kg/injection, schedule: Q04DX003 (ip), vehicle: Klucel (hydroxypropylcellulose) (HPC)
[16] = dose: 12.5 mg/kg/injection, schedule: Q01DX005 (ip), vehicle: saline with Tween-80
[17] = dose: 60.0 mg/kg/injection, schedule: Q01DX005 (ip), vehicle: Klucel (hydroxypropylcellulose) (HPC)
[18] = dose: 120.0 mg/kg/injection, schedule: Q01DX005 (ip), vehicle: Klucel (hydroxypropylcellulose) (HPC)
[19] = dose: 240.0 mg/kg/injection, schedule: Q01DX005 (ip), vehicle: Klucel (hydroxypropylcellulose) (HPC)

SMILES: C=C1CC2(CC[N+](Cc3ccccc3)(Cc3ccccc3)CC2)OC1=O
- T/C (dose: 12.5 mg/kg/injection, schedule: Q01DX005 (ip), vehicle: saline): 103 % of control
- T/C (dose: 25.0 mg/kg/injection, schedule: Q01DX005 (ip), vehicle: saline): 103 % of control
- T/C (dose: 50.0 mg/kg/injection, schedule: Q01DX005 (ip), vehicle: saline): 102 % of control and 97 % of control

SMILES: CC(C)NCC(O)COc1ccc(OCc2ccccc2)c(OCc2ccccc2)c1 (centres undefined)
- T/C (dose: 50.0 mg/kg/injection, schedule: Q01DX009 (ip), vehicle: saline with Tween-80): 100 % of control

SMILES: Clc1ccc(-c2nnc(-c3ccncc3)o2)c(Cl)c1
- T/C [1]: 93 % of control
- T/C [2]: 93 % of control
- T/C [3]: 86 % of control

SMILES: CC(=O)O[C@@H]1C(=O)C=C(C)[C@@H]2[C@@H](OC(=O)C=C(C)C)[C@H]3OC(=O)C[C@H]4[C@@H](C)[C@@H](O)[C@]5(O)OC[C@]34[C@H]5[C@@]12C
- T/C (dose: 0.5 mg/kg/injection, schedule: Q01DX009 (ip), vehicle: distilled water + Tween-80): 118 % of control
- T/C (dose: 1.0 mg/kg/injection, schedule: Q01DX009 (ip), vehicle: distilled water + Tween-80): 121 % of control
- T/C (dose: 10.0 mg/kg/injection, schedule: Q01DX009 (ip), vehicle: distilled water + Tween-80): 177 % of control

SMILES: CC(=O)N(C(C)=O)c1ccc(C)cc1
- T/C [4]: 94 % of control
- T/C [5]: 94 % of control
- T/C [6]: 100 % of control

SMILES: C=CCOc1cc2c(cc1C(C)c1ccccc1OC)OCO2 (centres undefined)
- T/C [7]: 99 % of control
- T/C [8]: 97 % of control
- T/C [9]: 104 % of control

SMILES: COc1ccc(C(=O)C(CCC(=O)c2ccc(O)cc2)S(C)(=O)=O)cc1 (centres undefined)
- T/C [10]: 100 % of control
- T/C [11]: 93 % of control
- T/C [12]: 96 % of control

SMILES: COC(=O)C1=C/C=C\CN/C=C\1C(=O)OC
- T/C (dose: 100.0 mg/kg/injection, schedule: Q04DX003 (ip), vehicle: alcohol): 97 % of control
- T/C (dose: 200.0 mg/kg/injection, schedule: Q04DX003 (ip), vehicle: alcohol): 97 % of control
- T/C (dose: 400.0 mg/kg/injection, schedule: Q04DX003 (ip), vehicle: alcohol): 106 % of control

SMILES: N#Cc1ccccc1N=Nc1nc(N)c(C(N)=O)[nH]1
- T/C [13]: 100 % of control
- T/C [14]: 103 % of control
- T/C [15]: 100 % of control

SMILES: CCn1c(O)c(N=NC(=S)SCc2ccccc2)c2ccccc21
- T/C (dose: 1.56 mg/kg/injection, schedule: Q01DX009 (ip), vehicle: suspension in saline): 97 % of control
- T/C (dose: 3.12 mg/kg/injection, schedule: Q01DX009 (ip), vehicle: suspension in saline): 101 % of control
- T/C (dose: 6.25 mg/kg/injection, schedule: Q01DX009 (ip), vehicle: suspension in saline): 87 % of control and 97 % of control
- T/C (dose: 25.0 mg/kg/injection, schedule: Q01DX009 (ip), vehicle: saline): 94 % of control

SMILES: C[C@]12CC(=O)[C@@H](C[C@H]1OC(=O)c1ccccc1)[C@@]21CO1
- T/C (dose: 2.0 mg/kg/injection, schedule: Q04DX002 (ip), vehicle: distilled water + Tween-80): 102 % of control
- T/C (dose: 4.0 mg/kg/injection, schedule: Q04DX002 (ip), vehicle: distilled water + Tween-80): 97 % of control
- T/C (dose: 8.0 mg/kg/injection, schedule: Q04DX002 (ip), vehicle: distilled water + Tween-80): 100 % of control
- T/C (dose: 16.0 mg/kg/injection, schedule: Q04DX002 (ip), vehicle: distilled water + Tween-80): 106 % of control
- T/C (dose: 32.0 mg/kg/injection, schedule: Q04DX002 (ip), vehicle: distilled water + Tween-80): 99 % of control

SMILES: CC(C)N=C(C1=C(O)c2ccccc2C1=O)c1ccccc1
- T/C (dose: 25.0 mg/kg/injection, schedule: Q04DX002 (ip), vehicle: saline with Tween-80): 100 % of control
- T/C (dose: 50.0 mg/kg/injection, schedule: Q04DX002 (ip), vehicle: saline with Tween-80): 104 % of control
- T/C (dose: 100.0 mg/kg/injection, schedule: Q04DX002 (ip), vehicle: saline with Tween-80): 100 % of control

SMILES: C[PH+](C)C.C[PH+](C)C.[Au]
- T/C (dose: 1.25 mg/kg/injection, schedule: Q01DX009 (ip), vehicle: saline): 112 % of control
- T/C (dose: 2.5 mg/kg/injection, schedule: Q01DX009 (ip), vehicle: saline): 114 % of control
- T/C (dose: 5.0 mg/kg/injection, schedule: Q01DX009 (ip), vehicle: saline): 116 % of control

SMILES: O=C(OCCO)N1CCN(C(=O)OCCO)CC1
- T/C (dose: 50.0 mg/kg/injection, schedule: Q01DX009 (ip), vehicle: saline): 101 % of control
- T/C (dose: 100.0 mg/kg/injection, schedule: Q01DX009 (ip), vehicle: saline): 103 % of control
- T/C (dose: 200.0 mg/kg/injection, schedule: Q01DX009 (ip), vehicle: saline): 101 % of control
- T/C (dose: 400.0 mg/kg/injection, schedule: Q01DX009 (ip), vehicle: saline): 98 % of control

SMILES: Oc1ccc(O)c(-c2c(-c3ccccc3)cc3ccccn23)c1
- T/C [10]: 102 % of control
- T/C [11]: 104 % of control
- T/C [12]: 104 % of control

SMILES: Nc1ccc2cc(S(=O)(=O)O)cc(O)c2c1N=Nc1ccc(NC(=O)c2ccc(C(=O)Nc3ccc(N=Nc4c(N)ccc5cc(S(=O)(=O)O)cc(O)c45)c(S(=O)(=O)O)c3)cc2)cc1S(=O)(=O)O
- T/C [16]: 101 % of control
- T/C (dose: 25.0 mg/kg/injection, schedule: Q01DX005 (ip), vehicle: saline with Tween-80): 96 % of control
- T/C [7]: 98 % of control

SMILES: CC(C#N)(S(C)(=O)=O)S(=O)(=O)c1ccccc1 (centres undefined)
- T/C (dose: 1.56 mg/kg/injection, schedule: Q01DX001 (ip), vehicle: saline with Tween-80): 96 % of control
- T/C (dose: 3.12 mg/kg/injection, schedule: Q01DX001 (ip), vehicle: saline with Tween-80): 99 % of control
- T/C (dose: 6.25 mg/kg/injection, schedule: Q01DX001 (ip), vehicle: saline with Tween-80): 102 % of control

SMILES: CC(=O)O[C@@]1(C)OC(=O)[C@@]2(c3ccccc3)N(C(C)=O)C(C)=C(C#N)[C@@]12C#N
- T/C [7]: 100 % of control
- T/C [8]: 106 % of control
- T/C [9]: 97 % of control

SMILES: CCOC(=O)C1CSC(c2c(CO)cnc(C)c2O)N1 (centres undefined)
- T/C [17]: 100 % of control
- T/C [18]: 99 % of control
- T/C [19]: 99 % of control

SMILES: Cc1cc(=S)c2cc3c(cc2[nH]1)OCO3
- T/C [10]: 107 % of control
- T/C [11]: 101 % of control
- T/C [12]: 103 % of control

SMILES: CSC(=N\N=C\c1cccs1)/N=C/N(C)C
- T/C [1]: 92 % of control
- T/C [2]: 99 % of control
- T/C [3]: 97 % of control

SMILES: COc1ccc(Cc2cc3c(cc2OCC(N)=O)OCO3)cc1
- T/C (dose: 6.25 mg/kg/injection, schedule: Q01DX005 (ip), vehicle: saline with Tween-80): 90 % of control
- T/C [16]: 90 % of control

SMILES: N#CNc1nnnn1-c1ccc(-n2nnnc2NC#N)cc1 (tested in a mixture with another compound)
- T/C [13]: 92 % of control
- T/C [14]: 91 % of control
- T/C [15]: 90 % of control

SMILES: CC(C)(C)C1CCC(P(C)(C)=S)CC1 (centres undefined)
- T/C [4]: 99 % of control
- T/C [5]: 114 % of control
- T/C [6]: 94 % of control
- T/C (dose: 200.0 mg/kg/injection, schedule: Q01DX009 (ip), vehicle: Klucel (hydroxypropylcellulose) (HPC)): 97 % of control

SMILES: O=c1[nH]c2c([N+](=O)[O-])cc(Cl)cc2nc1/C=C(\O)c1ccc(Cl)cc1
- T/C (dose: 30.0 mg/kg/injection, schedule: Q01DX005 (ip), vehicle: Klucel (hydroxypropylcellulose) (HPC)): 99 % of control
- T/C [17]: 100 % of control
- T/C [18]: 99 % of control and 108 % of control
- T/C [19]: 105 % of control

SMILES: CCC(c1ccc(O)cc1)c1cc2c(cc1OC)OCO2 (centres undefined)
- T/C (dose: 50.0 mg/kg/injection, schedule: Q01DX005 (ip), vehicle: distilled water + Tween-80): 101 % of control
- T/C (dose: 100.0 mg/kg/injection, schedule: Q01DX005 (ip), vehicle: distilled water + Tween-80): 96 % of control
- T/C (dose: 200.0 mg/kg/injection, schedule: Q01DX005 (ip), vehicle: distilled water + Tween-80): 96 % of control

SMILES: Cc1c(N=Nc2cccc(Cl)c2Cl)c(-c2ccccc2)nn1C(=S)S
- T/C [7]: 106 % of control
- T/C [8]: 94 % of control
- T/C [9]: 103 % of control
